Laboratory results as given in patent US20220289698A1, “INHIBITORS OF HUMAN ATGL” (Karl-Franzens-Universität Graz, priority 2019, published 2022).
Like-named read-outs stand apart in the source and are kept apart here.

Key:
human ATGL = biological target: T1, human ATGL (Homo sapiens, UniProt Q96AD5); assay: TG hydrolase activity, Expi cell lysates expressing human ATGL + CGI-58, radiolabelled triolein; format: biochemical
T1 construct: made in house; host or cells: Expi cells (lysate, not purified)
T1 sequence (Q96AD5 1-504): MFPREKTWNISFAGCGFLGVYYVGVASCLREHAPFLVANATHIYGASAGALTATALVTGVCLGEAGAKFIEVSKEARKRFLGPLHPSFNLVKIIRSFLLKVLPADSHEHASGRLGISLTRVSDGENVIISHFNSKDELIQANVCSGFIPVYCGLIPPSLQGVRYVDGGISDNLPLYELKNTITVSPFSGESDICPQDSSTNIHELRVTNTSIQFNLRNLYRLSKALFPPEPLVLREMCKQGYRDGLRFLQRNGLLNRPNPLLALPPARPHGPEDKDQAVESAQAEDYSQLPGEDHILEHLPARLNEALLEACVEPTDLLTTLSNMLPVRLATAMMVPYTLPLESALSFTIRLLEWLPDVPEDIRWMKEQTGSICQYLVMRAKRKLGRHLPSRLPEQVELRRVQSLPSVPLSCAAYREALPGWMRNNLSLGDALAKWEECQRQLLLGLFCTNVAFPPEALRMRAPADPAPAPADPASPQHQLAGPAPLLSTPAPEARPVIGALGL
Outline: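 Lysates of Expi cells expressing ATGL, supplemented with purified CGI-58 and inhibitor in DMSO, incubated 1 h at 37 °C with emulsified radiolabelled triolein (330 μM) in potassium phosphate pH 7.0 with 5% FA-free BSA. Released FA counted by liquid scintillation after phase extraction; IC50 versus DMSO control, duplicates.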

murine ATGL = biological target: T2, murine ATGL (Mus musculus, UniProt Q8BJ56); assay: TG hydrolase activity, Expi lysates expressing mouse ATGL + CGI-58, radiolabelled triolein; format: biochemical; details: 50 μM compound; Example 237; read-out: Inhibition of murine ATGL at 50 μM − mean [%]
T2 construct: made in house; host or cells: Expi cells (lysate)
T2 sequence (Q8BJ56 1-486): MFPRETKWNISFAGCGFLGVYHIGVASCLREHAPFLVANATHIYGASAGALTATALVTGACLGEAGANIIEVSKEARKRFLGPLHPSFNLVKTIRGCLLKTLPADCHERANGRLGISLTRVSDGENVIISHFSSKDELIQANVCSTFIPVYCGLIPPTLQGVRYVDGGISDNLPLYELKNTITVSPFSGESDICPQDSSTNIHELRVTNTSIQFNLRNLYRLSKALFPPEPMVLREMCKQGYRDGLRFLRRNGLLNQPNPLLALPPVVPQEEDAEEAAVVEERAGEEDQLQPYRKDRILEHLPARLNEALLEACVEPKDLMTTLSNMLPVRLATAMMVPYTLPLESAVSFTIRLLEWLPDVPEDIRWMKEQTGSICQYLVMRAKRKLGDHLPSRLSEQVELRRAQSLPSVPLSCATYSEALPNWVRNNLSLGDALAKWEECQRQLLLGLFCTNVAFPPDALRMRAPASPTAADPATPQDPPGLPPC
Outline: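 Lysates of Expi cells overexpressing mouse ATGL, with added recombinant CGI-58, were incubated with inhibitor at 50 μM. Substrate was emulsified radiolabelled triolein with PC/PI in 100 mM potassium phosphate pH 7.0 and 5% FA-free BSA, 1 h at 37° C. Released FA were extracted and counted by scintillation; triplicates, DMSO control.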

[1] = Example 237, read-out: Inhibition of human ATGL − IC50
[2] = Example 238, read-out: Inhibition of human ATGL IC50

## CCCCOC(=O)c1cccc(-c2ccc(OCC)cc2)n1 [Example 2]
Human ATGL; [1]
  IC50: 20 µM
Murine ATGL
  inhibition at 50 µM: 5.9%
other
  melting point: 78 to 81 °C

## CCOC(=O)c1cccc(-c2ccc(OCCOC)cc2)n1 [Example 8]
Human ATGL; [1]
  IC50: 10 µM
Murine ATGL
  inhibition at 50 µM: 9.1%
other
  melting point: 89 to 94 °C

## COCCOc1ccc(-c2cccc(C(=O)OC(C)C)n2)cc1 [Example 11]
Human ATGL; [1]
  IC50: 5 µM
Murine ATGL
  inhibition at 50 µM: 1.8%
other
  melting point: 75 to 77 °C

## CC(C)OC(=O)c1cccc(-c2ccc(CO)cc2)n1 [Example 12]
Human ATGL; [1]
  IC50: 25 µM
Murine ATGL
  inhibition at 50 µM: 0%
other
  melting point: 129 to 131 °C

## CCOC(=O)c1cc(C)cc(-c2ccc(OCC)cc2)n1 [Example 14]
Human ATGL; [1]
  IC50: 10 µM
Murine ATGL
  inhibition at 50 µM: 6.1%
other
  melting point: 90 to 91 °C

## COCCOCCOc1ccc(-c2cccc(C(=O)OC(C)C)n2)cc1 [Example 15]
Human ATGL; [1]
  IC50: 6 µM
Murine ATGL
  inhibition at 50 µM: 0%
other
  melting point: 45 to 46 °C

## CCOCCOc1ccc(-c2cccc(C(=O)OC(C)C)n2)cc1 [Example 16]
Human ATGL; [1]
  IC50: 3 µM
Murine ATGL
  inhibition at 50 µM: 18.1%
other
  melting point: 46 to 47 °C

## CCS(=O)(=O)c1ccc(-c2cccc(C(=O)OC(C)C)n2)cc1 [Example 18]
Human ATGL; [1]
  IC50: 10 µM
Murine ATGL
  inhibition at 50 µM: 0%
other
  melting point: 126 to 129 °C

## COCc1ccc(-c2cccc(C(=O)OC(C)C)n2)cc1 [Example 19]
Human ATGL; [1]
  IC50: 3 µM
Murine ATGL
  inhibition at 50 µM: 3.9%
other
  melting point: 55 to 58 °C

## CCOc1ccc(-c2cc(C)cc(C(=O)OC(C)C)n2)cc1 [Example 20]
Human ATGL; values of text and figure legend, read-out: IC50 on human ATGL (hATGL)
  IC50: 4 µM
other
  melting point: 85 to 88 °C

## CCOc1ccc(-c2cccc(C(=O)OC3CC3)n2)cc1 [Example 21]
Human ATGL; [1]
  IC50: 5 µM
Murine ATGL
  inhibition at 50 µM: 0%
other
  melting point: 114 to 115 °C

## CC(=O)Oc1ccc(-c2cccc(C(=O)OC(C)C)n2)cc1 [Example 23]
Human ATGL; [1]
  IC50: 15 µM
Murine ATGL
  inhibition at 50 µM: 16%
other
  melting point: 71 to 75 °C

## CCOc1ccc(-c2cc(OC)cc(C(=O)OC)n2)cc1 [Example 26]
Human ATGL; [1]
  IC50: 12 µM
Murine ATGL
  inhibition at 50 µM: 23.1%
other
  melting point: 94 to 103 °C

## CCCOc1ccc(-c2cccc(C(=O)OC(C)C)n2)cc1 [Example 27]
Human ATGL; [1]
  IC50: 3 µM
Murine ATGL
  inhibition at 50 µM: 0%
other
  melting point: 90 to 93 °C

## CCOc1ccc(-c2cccc(C(=O)OC(C)(C)C)n2)cc1 [Example 28]
Human ATGL; [1]
  IC50: 12 µM
Murine ATGL
  inhibition at 50 µM: 0%
other
  melting point: 69 to 73 °C

## CCOC(=O)c1ccc(-c2cccc(C(=O)OC(C)C)n2)cc1 [Example 29]
Human ATGL; [1]
  IC50: 6 µM
Murine ATGL
  inhibition at 50 µM: 0%
other
  melting point: 56 to 62 °C

## CCOc1ccc(-c2cccc(C(=O)OC(C)CC)n2)cc1 (stereo not shown) [Example 30]
Human ATGL; [1]
  IC50: 8 µM
Murine ATGL
  inhibition at 50 µM: 0%
other
  melting point: 49 to 51 °C

## CCCOC(=O)c1cccc(-c2ccc(OCC)cc2)n1 [Example 31]
Human ATGL; [1]
  IC50: 12 µM
Murine ATGL
  inhibition at 50 µM: 6%
other
  melting point: 80 to 84 °C

## C=CCOC(=O)c1cccc(-c2ccc(OCC)cc2)n1 [Example 32]
Human ATGL; [1]
  IC50: 6 µM
Murine ATGL
  inhibition at 50 µM: 18.6%
other
  melting point: 65 to 70 °C

## CC(C)OC(=O)c1cccc(-c2ccc(OC3CCCCO3)cc2)n1 (stereo not shown) [Example 36]
Human ATGL; [1]
  IC50: 8 µM
Murine ATGL
  inhibition at 50 µM: 9.6%
other
  melting point: 105 to 107 °C

## COCc1ccc(-c2cc(OC)cc(C(=O)OC)n2)cc1 [Example 40]
Human ATGL; [1]
  IC50: 10 µM
other
  melting point: 65 to 68 °C

## CCOC(=O)c1cccc(-c2ccc(-c3ccccn3)cc2)n1 [Example 48]
Human ATGL; [1]
  IC50: 25 µM
other
  melting point: 130 to 132 °C

## CCOC(=O)c1cccc(-c2ccc(-c3cccnc3)cc2)n1 [Example 49]
Human ATGL; [1]
  IC50: 20 µM
other
  melting point: 84 to 104 °C

## CCCOc1ccc(-c2cc(OC)cc(C(=O)OC(C)C)n2)cc1 [Example 59]
Human ATGL; [1]
  IC50: 3 µM
other
  melting point: 79 to 81 °C

## CC(C)OC(=O)c1cccc(-c2ccc(C#Cc3ccccc3)cc2)n1 [Example 63]
Human ATGL; [1]
  IC50: 6 µM
other
  melting point: 136 to 143 °C

## CCSc1ccc(-c2cccc(C(=O)OC(C)C)n2)cc1 [Example 64]
Human ATGL; [1]
  IC50: 6 µM
other
  melting point: 93 to 96 °C

## COc1cc(C(=O)OC(C)C)nc(-c2ccc(-c3cccnc3)cc2)c1 [Example 65]
Human ATGL; [1]
  IC50: 6 µM
other
  melting point: 118 to 121 °C

## CCCc1ccc(-c2cccc(C(=O)OCC)n2)cc1 [Example 66]
Human ATGL; [1]
  IC50: 10 µM
other
  melting point: 68 to 69 °C

## CC(C)OC(=O)c1cccc(-c2ccc(CCc3ccccc3)cc2)n1 [Example 67]
Human ATGL; [1]
  IC50: 2 µM
other
  melting point: 88 to 89 °C

## C#C[C@@H](C)OC(=O)c1cccc(-c2ccc(CCC)cc2)n1 [Example 71]
Human ATGL; [1]
  IC50: 2 µM
other
  melting point: 112 to 113 °C

## CCOc1ccc(-c2cccc(C(=O)OC/C=C/c3ccccc3)n2)cc1 [Example 73]
Human ATGL; [1]
  IC50: 3 µM
other
  melting point: 110 °C

## CSc1ccc(-c2cccc(C(=O)OC(C)C)n2)cc1 [Example 90]
Human ATGL; [1]
  IC50: 3 µM
other
  melting point: 60 to 61 °C

## COc1ccc(C#Cc2ccc(-c3cccc(C(=O)OC(C)C)n3)cc2)cc1 [Example 92]
Human ATGL; [1]
  IC50: 3 µM
other
  melting point: 152 to 155 °C

## CC(C)COc1ccc(-c2cccc(C(=O)OC(C)C)n2)cc1 [Example 96]
Human ATGL; [1]
  IC50: 10 µM
other
  melting point: 103 to 107 °C

## CCC(C)OC(=O)c1cc(OC)cc(-c2ccc(OC(C)C)cc2)n1 (stereo not shown) [Example 202, sec-Butyl 6-(4-Isopropoxyphenyl)-4-methoxypicolinate]
Human ATGL; [2]
  IC50: 3 µM
other
  melting point: 68 °C

## COc1cc(C(=O)OC2CCC2)nc(-c2ccc(OC(C)C)cc2)c1 [Example 203, Cyclobutyl 6-(4-isopropoxyphenyl)-4-methoxypicolinate]
Human ATGL; [2]
  IC50: 10 µM
other
  melting point: 116 to 118 °C

## [2H]C([2H])([2H])C([2H])(OC(=O)c1cc(OC)cc(-c2ccc(OC(C)C)cc2)n1)C([2H])([2H])[2H] [Example 204, Propan-2-yl-d7 6-(4-isopropoxyphenyl)-4-methoxypicolinate]
Human ATGL; [2]
  IC50: 1 µM
other
  melting point: 70 to 72 °C

## CCc1ccc(-c2cc(OC)cc(C(=O)OC(C)C)n2)cc1 [Example 205, Isopropyl 6-(4-ethylphenyl)-4-methoxypicolinate]
Human ATGL; [2]
  IC50: 3 µM
other
  melting point: 51 °C

## COc1ccc(-c2cc(OC)cc(C(=O)OC(C)C)n2)cc1 [Example 206, Isopropyl 4-methoxy-6-(4-methoxyphenyl)picolinate]
Human ATGL; [2]
  IC50: 5 µM
other
  melting point: 59 to 61 °C
